For 13 compounds, EC50 and IC50 results are on record in patent US11566007B2, “Ras inhibitors” (Revolution Medicines, Inc., priority 2019, dated 2023).

Where two headings read alike, the source gives them in different places.

Experiment [1] has as its system NCI-H358 cells (K-Ras G12C). Description: Potency assay: pERK in NCI-H358 cells. The settings on record: Homo sapiens, NCI-H358; H358 KRAS G12C; read-out: pERK EC50. It counts as cell-based, human. The essentials: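 4 h cpd, 37 °C; 10-pt 3-fold series, 10 mM DMSO top stock, duplicates. Readout pERK: AlphaLISA SureFire Ultra or In-Cell Western (IR-800CW secondary, DRAQ5 DNA stain). IC50, 4-PL fit vs log conc.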

A further experiment deals with KRAS G13D (Homo sapiens (Human), UniProt P01116+P62937, G13D). The experiment is described as follows: Ras-Raf (BRAF RBD) disruption / FRET / MOA assay, KRAS G13D. It is filed as biochemical. The essentials:
(§1)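 Ternary complex formation (Ras–compound–cyclophilin A) displacing BRAF RBD, monitored by TR-FRET. Three hours at 25° C with compound (top 30 μM final), then 1.5 h with the labelled antibodies. Lower ratio than DMSO indicates disruption; IC50 reported.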

Another experiment concerns the target KRAS G12V (Homo sapiens (Human), UniProt P01116+P62937, G12V). The experiment is described as follows: Ras-Raf (BRAF RBD) disruption / FRET / MOA assay, KRAS G12V. It counts as biochemical. The essentials: as §1
A further experiment concerns the target K-Ras G13C (Homo sapiens (Human), UniProt P01116+P62937, G13C). The experiment is described as follows: Ras-Raf (BRAF RBD) disruption / FRET / MOA assay, KRAS G13C. The settings on record: KRAS G13C, Ras-Raf disruption/FRET/MOA assay. It counts as biochemical. The essentials:
as §1

A further experiment concerns the target KRAS WT (Homo sapiens (Human), UniProt P01116+P62937). Description: Ras-Raf (BRAF RBD) disruption / FRET / MOA assay, KRAS WT. It is filed as biochemical. The essentials: as §1
The next experiment deals with NRAS WT (Homo sapiens (Human), UniProt P01111+P62937). The experiment is described as follows: Ras-Raf (BRAF RBD) disruption / FRET / MOA assay, NRAS WT. The note with it: read-out: IC50* NRAS WT FRET data. It is filed as biochemical. The gist of the method: (§2)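 Compounds were tested as a 10-point 3-fold dilution series from 30 μM final for their ability to drive ternary complex formation between nucleotide-loaded Ras and cyclophilin A, displacing the BRAF RBD. After 3 h at 25° C., anti-His Eu-W1024 (10 nM) and anti-GST allophycocyanin (50 nM) were added for 1.5 h. A TR-FRET ratio decrease versus DMSO gave IC50.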
Sequence of NRAS WT (P01111 whole entry): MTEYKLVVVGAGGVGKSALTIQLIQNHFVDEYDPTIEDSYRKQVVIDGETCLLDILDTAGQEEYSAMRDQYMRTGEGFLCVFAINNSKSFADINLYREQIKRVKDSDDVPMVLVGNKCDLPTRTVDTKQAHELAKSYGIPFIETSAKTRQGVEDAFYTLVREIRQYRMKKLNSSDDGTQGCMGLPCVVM
Sequence of NRAS WT (P62937 whole entry): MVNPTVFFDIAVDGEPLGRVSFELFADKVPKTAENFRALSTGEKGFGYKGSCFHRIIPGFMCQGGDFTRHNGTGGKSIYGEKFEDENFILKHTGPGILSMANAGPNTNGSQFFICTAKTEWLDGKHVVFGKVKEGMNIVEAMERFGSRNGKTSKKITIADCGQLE

A further experiment has as its target KRAS Q61H (Homo sapiens (Human), UniProt P01116+P62937, Q61H). The experiment is described as follows: Ras-Raf (BRAF RBD) disruption / FRET / MOA assay, KRAS Q61H. It is filed as biochemical. The settings on record: Ras-Raf disruption/FRET/MOA assay; class symbols; read-out: KRAS Q61H FRET data IC50. The essentials: as §2
Where [2] appears, read: read-out: IC50* KRAS G13D FRET data.
The mark [3] stands for this setting: read-out: IC50* KRAS G12V FRET data.
[4] abbreviates: read-out: IC50* KRAS G13C FRET data.
[5] abbreviates: read-out: IC50* KRAS WT FRET data.

Sequence of KRAS G12V (P01116-2 other isoform, or with tags, fused parts or gaps G12V): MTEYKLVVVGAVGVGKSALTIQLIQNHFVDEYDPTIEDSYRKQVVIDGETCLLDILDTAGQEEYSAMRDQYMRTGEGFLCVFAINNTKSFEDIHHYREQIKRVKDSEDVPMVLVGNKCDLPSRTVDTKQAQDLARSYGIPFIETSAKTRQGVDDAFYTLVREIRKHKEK
Sequence of KRAS G12V (P62937 whole entry): as the sequence (P62937 whole entry) above
Sequence of KRAS WT (P01116-2 other isoform, or with tags, fused parts or gaps): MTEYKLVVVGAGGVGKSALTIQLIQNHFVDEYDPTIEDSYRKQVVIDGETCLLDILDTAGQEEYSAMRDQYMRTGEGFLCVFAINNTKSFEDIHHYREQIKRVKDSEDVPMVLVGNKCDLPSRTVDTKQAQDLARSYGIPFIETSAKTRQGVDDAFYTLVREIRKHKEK
Sequence of KRAS WT (P62937 whole entry): as the sequence (P62937 whole entry) above
Sequence of KRAS Q61H (P01116-2 other isoform, or with tags, fused parts or gaps Q61H): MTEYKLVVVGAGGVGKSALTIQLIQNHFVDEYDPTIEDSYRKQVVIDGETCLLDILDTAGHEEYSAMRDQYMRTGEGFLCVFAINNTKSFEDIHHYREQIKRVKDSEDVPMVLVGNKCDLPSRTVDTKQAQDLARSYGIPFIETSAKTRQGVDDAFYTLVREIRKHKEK
Sequence of KRAS Q61H (P62937 whole entry): as the sequence (P62937 whole entry) above
Sequence of KRAS G13D (P01116-2 other isoform, or with tags, fused parts or gaps G13D): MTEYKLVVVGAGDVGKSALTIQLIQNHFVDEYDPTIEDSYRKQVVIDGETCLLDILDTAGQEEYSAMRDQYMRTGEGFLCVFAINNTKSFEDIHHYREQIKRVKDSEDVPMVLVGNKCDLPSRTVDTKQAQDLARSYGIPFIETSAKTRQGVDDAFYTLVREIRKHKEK
Sequence of KRAS G13D (P62937 whole entry): as the sequence (P62937 whole entry) above
Sequence of K-Ras G13C (P01116-2 other isoform, or with tags, fused parts or gaps G13C): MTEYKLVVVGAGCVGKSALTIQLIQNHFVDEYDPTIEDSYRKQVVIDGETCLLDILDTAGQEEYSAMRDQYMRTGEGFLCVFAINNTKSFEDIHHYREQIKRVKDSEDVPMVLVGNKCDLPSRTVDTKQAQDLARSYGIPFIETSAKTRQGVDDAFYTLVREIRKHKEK
Sequence of K-Ras G13C (P62937 whole entry): as the sequence (P62937 whole entry) above

By EC50 is commonly meant the concentration giving half of the maximal effect. By IC50 is commonly meant the point on the concentration scale where inhibition reaches its midpoint. Turning to `C=CC(=O)N1CCO[C@H]2CN(C(=O)N(C)[C@H](C(=O)N[C@H]3Cc4cc(C(F)F)cc(n4)-c4ccc5c(c4)c(c(-c4cccnc4[C@H](C)OC)n5CC(F)(F)F)CC(C)(C)COC(=O)[C@@H]4CCCN(N4)C3=O)C(C)C)C[C@H]21` (atropisomer, axis not shown) [Example A540], in experiment [1], the EC50 is below 5 µM. The IC50 against KRAS G13D (IC50* KRAS G13D FRET data) fell in the range of 1 to 10 µM; against KRAS G12V (IC50* KRAS G12V FRET data), 1 to 10 µM; at K-Ras G13C (IC50* KRAS G13C FRET data), 0.01 to 0.1 µM; against KRAS WT (IC50* KRAS WT FRET data) it was 1 to 10 µM; at NRAS WT, 1 to 10 µM; at KRAS Q61H it was 0.1 to 1 µM.
For `C=CC(=O)N1CCO[C@@H]2CN(C(=O)N(C)[C@H](C(=O)N[C@H]3Cc4nc(cs4)-c4ccc5c(c4)c(c(-c4cccnc4[C@H](C)OC)n5CC)CC(C)(C)COC(=O)[C@@H]4CCCN(N4)C3=O)C(C)C)C[C@H]21` (atropisomer, axis not shown) [Example A543], the EC50 in experiment [1] was below 5 µM. The IC50 on KRAS G13D (setting [2]) fell in the range of 0.1 to 1 µM; at KRAS G12V (setting [3]), 0.1 to 1 µM; on K-Ras G13C (setting [4]) it was 0.1 to 1 µM; at KRAS WT (setting [5]), 0.1 to 1 µM; at NRAS WT, 0.1 to 1 µM; on KRAS Q61H, 0.01 to 0.1 µM.
With `C=CC(=O)N1CCO[C@H]2CN(C(=O)N(C)[C@H](C(=O)N[C@H]3Cc4nc(cs4)-c4ccc5c(c4)c(c(-c4cccnc4[C@H](C)OC)n5CC)CC(C)(C)COC(=O)[C@@H]4CCCN(N4)C3=O)C(C)C)C[C@@H]21` (atropisomer, axis not shown) [Example A544], the EC50 in experiment [1] was below 5 µM. Further, the IC50 on KRAS G13D (setting [2]) is 0.1 to 1 µM; on KRAS G12V (setting [3]), 0.1 to 1 µM; on K-Ras G13C (setting [4]) it was 0.1 to 1 µM; on KRAS WT (setting [5]), 0.1 to 1 µM; on NRAS WT, 0.1 to 1 µM; at KRAS Q61H it was 0.01 to 0.1 µM.
For `C=CC(=O)N1CCOC2(CCN(C(=O)N(C)[C@H](C(=O)N[C@H]3Cc4nsc(n4)-c4ccc5c(c4)c(c(-c4cccnc4[C@H](C)OC)n5CC)CC(C)(C)COC(=O)[C@@H]4CCCN(N4)C3=O)C(C)C)CC2)C1` (atropisomer, axis not shown) [Example A545], the EC50 in experiment [1] is below 5 µM. Moreover, the half-inhibitory concentration (IC50) at KRAS G13D (setting [2]) lay in the range of 0.1 to 1 µM; on KRAS G12V (setting [3]), 0.1 to 1 µM; on K-Ras G13C (setting [4]), 0.01 to 0.1 µM; on KRAS WT (setting [5]) it was 0.1 to 1 µM; at NRAS WT, 0.1 to 1 µM; on KRAS Q61H, 0.01 to 0.1 µM.
For the compound `C=CC(=O)N1CC[C@@H]2[C@H]1CN2C(=O)N(C)[C@H](C(=O)N[C@H]1Cc2nc(cs2)-c2ccc3c(c2)c(c(-c2cccnc2[C@H](C)OC)n3CC)CC(C)(C)COC(=O)[C@@H]2CCCN(N2)C1=O)C(C)C` (atropisomer, axis not shown) [Example A546], the EC50 in experiment [1] was below 5 µM. Besides, the IC50 on KRAS G13D (setting [2]) lay in the range of 1 to 10 µM; at KRAS G12V (setting [3]) it was 0.1 to 1 µM; at K-Ras G13C (setting [4]), 0.01 to 0.1 µM; on KRAS WT (setting [5]), 1 to 10 µM; on NRAS WT, 0.1 to 1 µM; on KRAS Q61H, 0.1 to 1 µM.
On to `CCn1c(-c2cccnc2[C@H](C)OC)c2c3cc(ccc31)-c1cccc(c1)C[C@H](NC(=O)[C@H](C(C)C)N1CC[C@@]3(CCN(C(=O)C#C[C@H]4COCCN4C)C3)C1=O)C(=O)N1CCC[C@H](N1)C(=O)OCC(C)(C)C2` (atropisomer, axis not shown) [Example A551], for which the EC50 in experiment [1] was below 5 µM. In addition, the IC50 at KRAS G13D (setting [2]) lay within 1 to 10 µM; on KRAS G12V (setting [3]), 1 to 10 µM; on K-Ras G13C (setting [4]) it was 0.1 to 1 µM; at KRAS WT (setting [5]), 1 to 10 µM; at NRAS WT, 1 to 10 µM; at KRAS Q61H, 0.1 to 1 µM.
For `CCn1c(-c2cccnc2[C@H](C)OC)c2c3cc(ccc31)-c1cccc(c1)C[C@H](NC(=O)[C@H](C(C)C)N1CO[C@@]3(CCN(C(=O)/C=C/CN(C)C)C3)C1=O)C(=O)N1CCC[C@H](N1)C(=O)OCC(C)(C)C2` (atropisomer, axis not shown) [Example A558], the EC50 in experiment [1] is below 5 µM. The IC50 on KRAS G13D (setting [2]) lay in the range of 0.1 to 1 µM; at KRAS G12V (setting [3]) it was 1 to 10 µM; on K-Ras G13C (setting [4]), 0.1 to 1 µM; at KRAS WT (setting [5]) it was 0.1 to 1 µM; on NRAS WT, 0.1 to 1 µM; at KRAS Q61H, 0.1 to 1 µM.
Turning to `CO[C@@H](COC1CN(C(=O)C#CC(C)(C)N(C)C)C1)C(=O)N[C@H]1Cc2coc(n2)-c2ccc3c(c2)c(c(-c2cccnc2[C@H](C)OC)n3CC(F)(F)F)CC(C)(C)COC(=O)[C@@H]2CCCN(N2)C1=O` (atropisomer, axis not shown) [Example A579], the EC50 in experiment [1] is below 5 µM. Further, the IC50 on KRAS G13D (setting [2]) is above 10 µM; at KRAS G12V (setting [3]), 1 to 10 µM; at K-Ras G13C (setting [4]), 1 to 10 µM; at KRAS WT (setting [5]), 1 to 10 µM; at NRAS WT, 1 to 10 µM; at KRAS Q61H, 1 to 10 µM.
`C=CC(=O)N1CCO[C@H]2CCN(C(=O)N(C)[C@H](C(=O)N[C@H]3Cc4nc(cs4)-c4ccc5c(c4)c(c(-c4cccnc4[C@H](C)OC)n5CC)CC(C)(C)COC(=O)[C@@H]4CCCN(N4)C3=O)C(C)C)C[C@H]21` (atropisomer, axis not shown) [Example A580]: in experiment [1], the 50% effective concentration (EC50) was below 5 µM. Also, the IC50 on KRAS G13D (setting [2]) fell in the range of 0.1 to 1 µM; on KRAS G12V (setting [3]) it was 0.1 to 1 µM; on K-Ras G13C (setting [4]), 0.1 to 1 µM; at KRAS WT (setting [5]), 0.1 to 1 µM; at NRAS WT, 0.1 to 1 µM; on KRAS Q61H, 0.01 to 0.1 µM.
Turning to `C=CC(=O)NCCN1CCN(C(=O)N(C)[C@H](C(=O)N[C@H]2Cc3nc(cs3)-c3ccc4c(c3)c(c(-c3cccnc3[C@H](C)OC)n4CC)CC(C)(C)COC(=O)[C@@H]3CCCN(N3)C2=O)C(C)C)CC1` (atropisomer, axis not shown) [Example A582], in experiment [1], the EC50 was below 5 µM. In addition, the IC50 on KRAS G13D (setting [2]) was in the range of 0.1 to 1 µM; at KRAS G12V (setting [3]), 0.1 to 1 µM; on K-Ras G13C (setting [4]), 0.1 to 1 µM; at KRAS WT (setting [5]), 0.1 to 1 µM; on NRAS WT it was 0.1 to 1 µM; on KRAS Q61H it was 0.01 to 0.1 µM.
As for `CCn1c(-c2cccnc2[C@H](C)OC)c2c3cc(ccc31)-c1cccc(c1)C[C@H](NC(=O)[C@@H](CO[C@@H]1CCN(C(=O)C#CC(C)(C)N(C)C)C1)C(C)C)C(=O)N1CCC[C@H](N1)C(=O)OCC(C)(C)C2` (atropisomer, axis not shown) [Example A584], the EC50 in experiment [1] is below 5 µM. Further, the IC50 on KRAS G13D (setting [2]) was above 10 µM; at KRAS G12V (setting [3]), 1 to 10 µM; at K-Ras G13C (setting [4]), 1 to 10 µM; at KRAS WT (setting [5]), above 10 µM; at NRAS WT it was 1 to 10 µM; on KRAS Q61H, 1 to 10 µM.
On to `CCn1c(-c2cccnc2[C@H](C)OC)c2c3cc(ccc31)-c1cc(CF)cc(c1)C[C@H](NC(=O)[C@@H](COC1CN(C(=O)C#CC(C)(C)N(C)C)C1)C(C)C)C(=O)N1CCC[C@H](N1)C(=O)OCC(C)(C)C2` (atropisomer, axis not shown) [Example A587], for which the half-maximal effective concentration (EC50) in experiment [1] was below 5 µM. The IC50 at KRAS G13D (setting [2]), at KRAS G12V (setting [3]), at K-Ras G13C (setting [4]), at KRAS WT (setting [5]), at NRAS WT and on KRAS Q61H was above 10 µM each time.
As to `CO[C@@H](C)c1ncccc1-c1c2c3cc(ccc3n1CC(F)(F)F)-c1cc(CF)cc(c1)C[C@H](NC(=O)[C@@H](COC1CN(C(=O)C#CC(C)(C)N(C)C)C1)C(C)C)C(=O)N1CCC[C@H](N1)C(=O)OCC(C)(C)C2` (atropisomer, axis not shown) [Example A589], the concentration giving a half-maximal response (EC50) in experiment [1] is below 5 µM. Besides, the IC50 is above 10 µM on KRAS G13D (setting [2]); above 10 µM on KRAS G12V (setting [3]); 1 to 10 µM at K-Ras G13C (setting [4]); 1 to 10 µM on KRAS WT (setting [5]); 1 to 10 µM on NRAS WT; 1 to 10 µM on KRAS Q61H.
